Source: patent publication US10921325B2, “Composition for anticancer adjuvant comprising RIP3 expression promoter as active ingredient, method for screening anticancer adjuvant which promotes RIP3 expression and enhances sensitivity of anticancer agent, and method for monitoring sensitivity of anticancer agent” (AJOU UNIVERSITY INDUSTRY-ACADEMIC COOPERATION FOUNDATION, priority 2015, dated 2021)

Columns and labels:
[1] = test system: HeLa, MDA-MB231 and DLD-1 cancer cell lines; assay: Sensitization to cancer cell death by combined treatment with demethylating agent and anticancer drug; format: cell-based
Experimental: (§1) Cell viability was determined using tetrazolium dye colorimetric test (MTT assay) at 570 nm.
The same number of HeLa, MDA-MB231 and DLD-1 cancer cell lines not treated with a drug were also grown, and then treated with the same concentration of an anticancer drug. The effect of the demethylating agent on sensitization to cell death was analyzed.

[2] = test system: non-target cell line and shRIP3 cell line; assay: Cell viability (MTT) of non-target and shRIP3 cell lines after combined treatment with demethylating agent and anticancer drug; format: cell-based, human
Experimental: (§2) A MISSION short-hairpin RNA (shRNA) plasmid that targets the coding region or 3′ UTR of hRIP3 mRNA (NM_006871) or a non-target control sequence (NM-027088) were obtained from Sigma-Aldrich. A Lentivirus plasmid was transfected into 293T cells (System Biosciences, LV900A-1) using Lipofectamine 2000 (Invitrogen, 11668019). Pseudoviral particles were collected at 2 days after transfection of the Lentivirus plasmid and infected into various cancer cells in the presence of polybrene (10 μg/mL).
as §1
(§3) Since a demethylating agent (5-AD or 5-AZA) is not a drug specific for a particular protein, it may cause expression of various proteins in addition to RIP3. […] After whether RIP3 was expressed was determined, a cell viability assay was performed.

[3] = test system: RIP3 expression in HeLa cervical cell line and DLD-1 colorectal cancer cell line; assay: RIP3 expression at mRNA or protein level in HeLa and DLD-1 cells treated with demethylating agent; format: cell-based; conditions: HeLa and DLD-1 cell lines which expressed no RIP3
[4] = test system: RIP3 expression in RIP3-silenced cancer cell lines; assay: RIP3 expression in RIP3-silenced cancer cell lines treated with demethylating agent (Western blotting)
Experimental: Cells were lysed in M2 buffer. Equal amounts of cell extracts were analyzed by SDS-PAGE and immunoblotting, and visualized by enhanced chemiluminescence (ECL, Amersham). A variety of RIP3-silenced cancer cell lines (including liver cancer, cervical cancer, prostate cancer, brain cancer, ovarian cancer, skin cancer, lung cancer, breast cancer, blood cancer, colorectal cancer, and bladder cancer) were grown to a confluence of 10-20%, and then treated twice with 5-AD for 4 days, after which RIP3 expression patterns in the cell lines were analyzed by a Western blotting technique.

[5] = test system: RIP3 expression in MDA-MB231 tumor tissue; assay: RIP3 expression in isolated xenograft tumor tissue (RT-PCR, IHC); format: in vivo, BALB/c nude mice; conditions: group treated with 5-AD
Experimental: Immunohistochemistry was performed using the UltraVision LP Detection System TL-060-HD (Thermo Scientific, Bioanalytica) according to the manufactures instructions. Thin paraffin sections (4.5 μm) were deparaffinized in xylene and rehydrated in a graded series of ethanol-aqueous solutions. Antigen retrieval was done by heating the slides for 15 min in a microwave oven in 10 mM citrate buffer (pH 6.0). Endogenous peroxidase activity was blocked by incubation in 3% hydrogen peroxide in TBS for 10 min, and then the sections were incubated overnight at 4° C. in 1:300 dilutions of anti-RIP3 antibody. Chromogen was developed for 5 min with 3,3′-diaminobenzidine (TL-015-HD, Them© Scientific, Bioanalytica, Greece) solution and counterstained with Meyer's hematoxylin. Immunohistochemical staining was evaluated based on the proportion of stained cells and immunostaining intensity. H-score used in the present invention was obtained by multiplying the proportion of stained cells (i) and staining intensity graded 0 (negative), 1 (weak), 2 (moderate), or 3 (strong). H-score ranged from 0 to 300. Staining was carried out for tumor and normal tissues for each sample for the same time. Staining was interpreted by an experienced pathologist blinded to the clinical data.
In addition, RNA was extracted from the isolated tumor tissue and subjected to RT-PCR. […]

[6] = test system: RIP3 expression in non-target and shRIP3 cancer cell lines; assay: RIP3 expression in non-target and shRIP3 cell lines treated with 5-AD (Western blotting); format: cell-based, human; conditions: treated twice with 5-AD for 4 days
Experimental: as §2, with “μg/mL). At 2 days after infection, infected cells were selected with puromycin, and RIP3 knockdown was confirmed by immunoblotting. Cells without expression endogenous RIP3 were afterwards treated with 5-AD for 4 days and analyzed by immunoblotting.” for “μg/mL).”
Cells were lysed in M2 buffer.
as §3

[7] = test system: MDA-MB231 breast cancer cell line tumors; assay: MDA-MB231 mouse xenograft model, combined treatment with 5-AD and Doxorubicin; format: in vivo, BALB/c nude mice
Experimental: In order to verify the sensitization effect induced by RIP3 expression in experimental animal models, the MDA-MB231 breast cancer cell line that expresses no RIP3 was injected into BALB/c nude mice to form tumors. Next, the mice were injected with 5-AD for 1 week, and then injected with Doxorubicin for 33 days, and a change in the volume of the tumor tissue was measured. […] In addition, the tumor tissue was isolated after the last drug treatment, and the mass thereof was measured. […] The tumor tissue subjected to combined treatment with 5-AD and Doxorubicin was prepared into a paraffin block which was then visualized by H&E staining, p-H2AX antibody staining, and TUNEL staining.

HT-29 cells = assay: Viability (MTT) of RIP3-silenced HT-29 cells treated with anticancer drug; format: cell-based, human; conditions: 48 hours
Experimental: In order to identify the role of RIP3 in anticancer drug sensitivity, the HT-29 cell line which is a representative cancer cell line expressing RIP3 was used. To identity the function of RIP3, RIP3 expression was inhibited using the shRNA system and analyzed by a Western blotting technique.
In the present invention, in order to examine whether the RIP3 gene is associated with anticancer drug sensitivity, HT-29 cells transfected with RIP3 shRNA were treated with varying concentrations of doxorubicin and etoposide, and then the cell viability of the cancer cells was measured. Particularly, HT-29 cells transfected with RIP3 shRNA were treated with 2.5 μM and 5 μM of doxorubicin and 50 μM and 100 μM of etoposide, and then incubated for 48 hours. After the medium was replaced with a fresh medium containing 0.1 mg of MTT (3-([4,5-dimethylthiazol-2-yl]-2,5-diphenyltetrazolium bromide), the cells were further incubated for 2 hours. Colorimetric analysis was performed on a precipitate obtained by reducing a tetrazolium salt, in which viable cells is dissolved, into a purple formazan crystal. Next, the medium was removed, and the produced formazan crystal was dissolved in 500 μl of DMSO, and the absorbance was measured using an ELISA reader at 570 nm. Cell viability was expressed as a percentage relative to the control taken as 100% viability.

T47D cells = assay: Viability (MTT) of RIP3-silenced T47D cells treated with anticancer drug; format: cell-based, human; conditions: 48 hours; for anticancer drug resistance (MTT assay): T47D RIP3-knocked down test group, versus control group; for cell death (MTT assay): T47D control group
Experimental: The T47D cell line which is a breast cancer cell line expressing RIP3 was used to identify the role of RIP3 in various kinds of cancel. First, the shRIP3 T47D cell line was prepared in the same manner as described in Example 7.
In order to examine whether RIP3 increases anticancer drug sensitivity in T47D breast cancer cells, an MTT assay was performed. A control group and a RIP3-knocked down test group were incubated with doxorubicin, etoposide and taxol at the concentrations shown in FIG. 15 (right) for 48 hours.

[8] = anticancer drug in combined treatment with the demethylating agent (5-AD or 5-AZA)
[9] = non-target cell line, anticancer drug combined with demethylating agent (5-AD)
[10] = HT-29 control group, doxorubicin 2.5 and 5 μM, etoposide 50 and 100 μM
[11] = HT-29 with RIP3 knocked down with shRNA, versus control group

Structure (SMILES) | sensitization to cell death [1, 8] | sensitization to cell death [2, 9] | anticancer drug resistance (MTT assay) (T47D cells) | cell death (MTT assay) (T47D cells) | also measured
N.N.[Cl][Pt][Cl] [Cisplatin, cisplatin] | showed the effect of sensitizing the cancer cell lines to cell death | showed the effect of sensitizing the cancer cell line to cell line |  |  | 
CC[C@@]1(O)C(=O)OCc2c1cc1n(c2=O)Cc2cc3ccccc3nc2-1 [CPT] | showed the effect of sensitizing the cancer cell lines to cell death | showed the effect of sensitizing the cancer cell line to cell line |  |  | 
Nc1ncn([C@@H]2O[C@H](CO)[C@@H](O)[C@H]2O)c(=O)n1 [5-AZA, 5-azacytidine] |  |  |  |  | RIP3 expression [3]: RIP3 expression was induced; RIP3 expression ([4]; cancer cell lines of Example 3, treated twice for 4 days): induced RIP3 expression
Nc1ncn([C@H]2C[C@H](O)[C@@H](CO)O2)c(=O)n1 [5-AD, 5-aza-2′-deoxycytidine] |  |  |  |  | RIP3 expression (RT-PCR) ([5]; RNA from isolated tumor tissue): increased; RIP3 expression (immunohistochemistry) ([5]; paraffin block of isolated tumor tissue): RIP3 expression was increased; sensitization to cell death ([1]; cervical, breast, colorectal and bladder cancer cell lines treated with the anticancer drug after RIP3 induction by 5-AD): sensitized to cell death; sensitization to cell death ([2]; shRIP3 cell line that expresses no RIP3, 5-AD combined with anticancer drug): the sensitization effect was inhibited; RIP3 expression ([6]; non-target cell line): RIP3 expression was induced; RIP3 expression ([6]; shRIP3 cell line, Western blotting): RIP3 was not expressed; volume of the tumor tissue ([7]; 5-AD for 1 week then Doxorubicin for 33 days, combined treatment compared to Doxorubicin alone): significantly reduced; H&E staining, p-H2AX antibody staining and TUNEL staining of tumor tissue ([7]; combined treatment with 5-AD and Doxorubicin): the death of the cancer cells occurred by the combined treatment; mass of tumor tissue ([7]; tumor isolated after the last drug treatment, combined treatment with Doxorubicin and 5-AD): significantly reduced; RIP3 expression ([4]; cancer cell lines that expressed no RIP3, 5-AD 2 uM, treated twice for 4 days, Western blotting): RIP3 expression was induced
O=c1[nH]cc(F)c(=O)[nH]1 [5-FU] | showed the effect of sensitizing the cancer cell lines to cell death | showed the effect of sensitizing the cancer cell line to cell line |  |  | 
COc1cc([C@@H]2c3cc4c(cc3[C@@H](O[C@@H]3O[C@@H]5CO[C@@H](C)O[C@H]5[C@H](O)[C@H]3O)[C@H]3COC(=O)[C@H]23)OCO4)cc(OC)c1O [Etoposide, etoposide] | showed the effect of sensitizing the cancer cell lines to cell death | showed the effect of sensitizing the cancer cell line to cell line | significantly increased compared to that of the control group | killed depending on the concentration | cell viability (HT-29 cells; [10]): the cell viability decreased depending on the concentration; cell viability (HT-29 cells; [11]): the cell viability significantly increased compared to that of the control group
O=C(O)C(Cc1c[nH]c2ccccc12)N1C(=O)c2ccccc2C1=O (stereo not shown) [RG108] |  |  |  |  | RIP3 expression [3]: RIP3 expression was induced
CC(=O)O[C@H]1C(=O)[C@@]2(C)[C@H]([C@H](OC(=O)c3ccccc3)[C@]3(O)C[C@H](OC(=O)[C@H](O)[C@@H](NC(=O)c4ccccc4)c4ccccc4)C(C)=C1C3(C)C)[C@]1(OC(C)=O)CO[C@@H]1C[C@@H]2O [Paclitaxel, paclitaxel] | showed the effect of sensitizing the cancer cell lines to cell death |  | significantly increased compared to that of the control group | killed depending on the concentration | 
COc1cccc2c1C(=O)c1c(O)c3c(c(O)c1C2=O)C[C@@](O)(C(=O)CO)C[C@@H]3O[C@H]1C[C@H](N)[C@H](O)[C@H](C)O1 [Doxorubicin, doxorubicin] | showed the effect of sensitizing the cancer cell lines to cell death | showed the effect of sensitizing the cancer cell line to cell line | significantly increased compared to that of the control group | killed depending on the concentration | cell viability (HT-29 cells; [10]): the cell viability decreased depending on the concentration; cell viability (HT-29 cells; [11]): the cell viability significantly increased compared to that of the control group
